Measurements reported in PMC12005787, “Synthetic Lethality of SHP2 and XIAP Suppresses Proliferation and Metastasis in KRAS‐mutant Nonsmall Cell Lung Cancer” (Advanced Science, 2025).

What was measured:
[1] = system: SHP2 phosphorylation in HeLa cells; test: SHP2 phosphorylation in EGF-stimulated HeLa cells (immunoblotting); format: cell-based; settings: for effect on the level of SHP2 phosphorylation: 20 µM for 2 h before EGF (10 ng mL^−1); for effect on EGF-induced phosphorylation of SHP2 (Y542 and Y580) and ERK: pretreatment 2 h, SHP099 20 µM, embelin different concentrations, EGF 10 ng mL^−1 2 h
Excerpt: Figure 1 Embelin inhibits KRAS‐mutant tumor development. A) Correlation detection between mRNA expression of PTPN11 and KRAS in patients with LUAD (n = 706) using IlluminaHiSeq analysis with data derived from TCGA database. B) Correlation and number at risk of SHP2 expression with the overall survival probability of KRAS mutant lung cancer patients (n = 92) in the TCGA database. C) Protein expression and phosphorylation levels of SHP2 in RAS‐WT, NRAS, HRAS, and KRAS‐mutant cells. D) Effect of 3471 bioactive compounds at 10 µM against SHP2, with Na3VO4 serving as a control. Z’ factor values for 69 plates screened, Z’ = 0.81, S/N = 40.8. E) Binding energy between candidate drugs and SHP2 full‐length domain, catalytic region, and ΔSHP2 domain. F) HeLa cells were pretreated with DMSO, SHP099, or various compounds at 20 µM for 2 h before stimulation with EGF (10 ng mL^−1) for an additional 2 h. Cell lysates were subjected to immunoblotting with SHP2, p‐SHP2, and GAPDH antibodies. Data are from three independent experiments are presented. G) Spearman's correlation coefficient between drug‐related targets and KRAS mRNA in different types of tumors through the TCGA database. H) BCL2, TPO, RAF1, MCL1, MPL, and XIAP mRNA expression levels in LUAD tumors and adjacent tissues through the TCGA database. I) XIAP protein expression in RAS‐WT, NRAS‐mutant, HRAS‐mutant, and KRAS‐mutant cells. J) Effect of candidate drugs (10 µM) on colony formation in A549, NCI‐H2122, and NCI‐H1944 cells.
Figure 6 Embelin disrupts the SHP2 signaling complex in KRAS‐mutant NSCLC cells. A) HeLa cells were pretreated with SHP099 (20 µM) or different concentrations of embelin for 2 h and stimulated with EGF (10 ng mL^−1) for 2 h, the protein expression of RAS/MAPK signaling pathway in HeLa cells was detected. B) After treatment of embelin and SHP099 (10 µM) in NCI‐H2122 and A549 cells for 12 h, cell lysates were collected. One part was used to measure Gab1, Grb2, and SOS1 expression, and the other part underwent IP with SHP2 antibody. Then, binding of Gab1, Grb2, and SOS1 with SHP2 was detected. C) After treatment of embelin and SHP099 (10 µM) for 24 h, the expression of Gab1, p‐Gab1, Grb2, and SOS1 proteins in A549 and NCI‐H2122 cells were detected. […] Co‐localization of these proteins with SHP2 was detected using IF. […]
After given treatment, cells were lysed by ice bath with radio-immunoprecipitation assay (RIPA) buffer containing 1% phenylmethylsulphonyl fluoride (PMSF), and the supernatant was collected by centrifugation, and the protein concentration was subsequently determined using a BCA Protein Assay Kit. […]

A549 and NCI‐H2122 cells = test: Cell invasion assay; format: cell-based, human; settings: embelin 1 and 2.5 µM; 24 h
Method: NCI-H2122 and A549 cells were pre-starved in serum-free medium for 24 h and resuspended in serum-free medium containing 5 mg mL-1 BSA. The cell suspension was added to Transwell chambers at a density of 5×105 mL-1, and RPMI-1640 or Ham F-12K medium containing 10% FBS was added to the bottom of the Transwell chambers.
Subsequently, drugs were added to the chambers and incubated at 37 °C for 48 h and cells were then fixed with 4% neutral formaldehyde for 40 min and stained with 0.1% crystal violet for 60 min. The chamber was washed with triple-distilled water, and images were collected using an inverted microscope. […]
Depending on the molecular weight of the proteins, different concentrations of sodium dodecyl-sulfate polyacrylamide gel electrophoresis (SDS-PAGE) separator gels were prepared for protein electrophoresis. Equal amounts of proteins were sampled and subjected to SDS-PAGE gel electrophoresis; at the end of electrophoresis, the proteins were transferred to nitrocellulose (NC) membranes. The NC membrane was blocked with 5% skim milk and covered with a specific primary antibody overnight at 4 °C, in which the primary antibody was diluted at a ratio of 1:500–1:5000. The NC membrane was […]

NCI‐H2122 tumor = test: NCI-H2122 subcutaneous transplantation tumor model; format: in vivo, BALB/c‐nu mouse; settings: i.p., q2d
Method: NCI‐H2122 cells in the logarithmic growth phase were collected by mixing serum‐free RMPI‐1640 medium and Matrigel matrix gel, and injected subcutaneously into the right axilla of thymus‐less male BALB/c‐nu nude mice. Tumor volume was calculated according to V = ab^2/2 (where a and b are the long and short diameters of the tumor, respectively), and body weight was recorded every 3 days. When the tumor volume reached 100 mm^3, the mice were randomly divided into six groups (ten mice in each group): Control group (i.p, q2d), SHP099 (20 mg kg^−1, i.p, q2d) group, GDC‐0152 (20 mg kg^−1, i.p, q2d) group, SHP099 (20 mg kg^−1, i.p, q2d) + GDC‐ 0152 (20 mg kg^−1, i.p, q2d) co‐administration group, embelin (20 mg kg^−1, i.p, q2d) medium‐dose group and embelin (30 mg kg^−1, i.p, q2d) high‐dose group. When the tumor volume reached 1000 mm^3, all experimental mice were sacrificed, and tumor tissues and major organs, such as the heart, liver, spleen, lungs, and kidneys, were collected for further study.

[2] = system: MEK and ERK phosphorylation in NCI‐H2122 and A549 cells; test: MEK and ERK phosphorylation (western blotting); format: cell-based, human; settings: 24 h

Compound	effect on the level of SHP2 phosphorylation [1]	effect on EGF-induced phosphorylation of SHP2 (Y542 and Y580) and ERK [1]	effect on invasive ability (A549 and NCI‐H2122 cells)	effect on body weight of the mice (NCI‐H2122 tumor)	effect on weights of hearts, livers, lungs, and kidneys and structure of hearts and kidneys (NCI‐H2122 tumor)	effect on tumor growth in vivo (NCI‐H2122 tumor; embelin 20 and 30 mg kg^−1, GDC‐0152 20 mg kg^−1 + SHP099 20 mg kg^−1)	effect on MEK and ERK phosphorylation [2]
CCCCCCCCCCCC1=C(O)C(=O)C=C(O)C1=O [Embelin]	significantly inhibited SHP2 phosphorylation	significantly inhibited these phosphorylation levels	significantly inhibited the invasive ability	little or no effect on the body weight	no significant effect	significantly inhibited the tumor growth rate	inhibited MEK and ERK phosphorylation
O=C1Nc2ccc(I)cc2/C1=C/c1cc(Br)c(O)c(Br)c1 [S2872, GW5074]	significantly inhibited SHP2 phosphorylation	–	–	–	–	–	–
CC1(N)CCN(c2cnc(-c3cccc(Cl)c3Cl)c(N)n2)CC1 [SHP099]	–	significantly inhibited these phosphorylation levels	significantly inhibited the invasive ability	little or no effect on the body weight	no significant effect	–	did not affect MEK phosphorylation in A549 cells
